Assays:
small bowel ulcers = details: rats, cited from earlier work; for ulcer healing: glutamine given in a guar gum
[1] = test system: gastric reflux (heartburn); assay: Example 9: patient with stress-related gastric reflux takes L-lysine confection; assay type: in vivo, human; details: for effect of the patient's earlier treatments on gastric reflux / heartburn: same patient, Nexium 40 mg twice a day
[2] = test system: indomethacin induced gastric lesions; assay: Prevention of indomethacin induced gastric lesions (U.S. Pat. No. 3,988,466, Table 2); assay type: in vivo; details: indomethacin induced gastric lesions (Table 2)
Experimental: (§1) U.S. Pat. No. 3,988,466 reports that amino acids, particularly, L-glutamine are effective for the prevention or treatment of certain experimental ulcers, induced artificially by stress or pylorus ligation, or chemically by histamine, reserpine, cortisone, or inflammatory agents when given simultaneously. Further, such prevention only occurred when the concomitant dosage of the amino acid, L-glutamine, present was 2-5 g for a dose of aspirin of 0.3-1.0 g or for 25-50 mg of indomethacin, the required dose of L-glutamine was 2 g. […] Glutamine was ineffective in prevention of indomethacin induced gastric lesions at a dose of 15.6 mg/kg (Table 2) which is equivalent to 1.1 g for an human adult (70 kg weight). No use or indication for relief of gastric distress before or after lesion formation was observed, nor could it have been in the animal model used. No use or indication for relief of gastric lesions after lesion formation was disclosed. […] Of the 24 amino acids tried at the pharmaceutically unacceptable level of 750 mg/kg (calculated to be 52.5 g of the amino acid for a 70 kg human dose), all but DL-tryptophan, L-aspartic acid, L-tyrosine, L-cysteine and L-cystine gave more than 50% inhibition of ulcers. The pH of the amino acids was not a factor in ulcer prevention, showing that “the effect of amino acids is different from that of antacids” (Col 6, lines 27-31)

[3] = test system: aspirin induced gastric lesions; assay: Prevention of aspirin induced gastric lesions (U.S. Pat. No. 3,988,466, Table 1); assay type: in vivo; details: aspirin induced gastric lesions (Table 1)
Experimental: as §1

[4] = test system: aspirin induced gastric lesions; details: cited from earlier work
[5] = test system: indomethacin induced gastric lesions; details: cited from earlier work

With N=C(N)NCCC[C@H](N)C(=O)O [L-arginine] as the molecule, how does the “decrease in ulcer number” value (small bowel ulcers; L-arginine together with yeast RNA (antagonistic)) read?
The value was 34%.

And the ulcer healing (small bowel ulcers)?
The ulcer healing was “somewhat effective”.

For COc1ccc2nc([S@@+]([O-])Cc3ncc(C)c(OC)c3C)[nH]c2c1 [Nexium, esomeprazole, reference compound], which “effect of the patient's earlier treatments on gastric reflux / heartburn” value [1] is on record?
Its value is “continued heartburn”.

Which “time to complete cessation of all symptoms” value ([1]; 1 gram dose as a carrageenan confection) does the source give for NCCCC[C@H](N)C(=O)O [L-lysine] here?
The value was “one”.

What about the relief of heartburn ([1]; 1 gram dose as a carrageenan confection, patient with gastric reflux due to stress) of the same molecule?
Its relief of heartburn is “immediate relief”.

With NC(=O)CC[C@H](N)C(=O)O [Glutamine, L-glutamine] as the molecule, how does the “minimum effective dose calculated for a 70 kg human” value [2] read?
The value was 2.2 g.

And the “minimum effective dose calculated for a 70 kg human” value [3]?
Its value is 8.75 g.

And the minimum effective dose ([4]; aspirin induced gastric lesions (Table 1))?
The minimum effective dose was 125 mg/kg.

And the “prevention of aspirin induced gastric lesions” value ([4]; dose of 62.5 mg/kg)?
The value was “completely ineffective”.

And the “prevention of indomethacin induced gastric lesions” value ([5]; dose of 15.6 mg/kg)?
The value was “ineffective”.

And the minimum effective dose ([5]; indomethacin induced gastric lesions (Table 2))?
Its minimum effective dose is 31.3 mg/kg.

What about the ulcer healing (small bowel ulcers) of the same molecule?
Its ulcer healing is “no effect”.

For O=C([O-])[O-].[Ca+2] [calcium carbonate antacids, calcium carbonate, reference compound], which “effect of the patient's earlier treatments on gastric reflux / heartburn” value [1] is on record?
Its value is “ineffective”.
